The values below come from ChEMBL document CHEMBL5465560, “Selectivity Literature for EUbOPEN Chemogenomic Library” (2024).

The target of test [1] is Serine/threonine-protein kinase PRP4 homolog (Homo sapiens) (UniProt Q13523). Nature of the test: Selectivity interaction (Kinase panel (KiNativ target engagement assay in Jurkat cells)) EUB0001635a PRPF4. The class given is cell-based. The settings on record: Selectivity number of off-targets 0.0, Selectivity number of targets 233.0, Source Knowledge https://www.sciencedirect.com/science/article/pii/S2451945619300674?via%3Dihub, at 1 µM.

The target of test [2] is T1, Histone-lysine N-methyltransferase SUV39H1 (Homo sapiens) (UniProt O43463).
T1 sequence (whole entry): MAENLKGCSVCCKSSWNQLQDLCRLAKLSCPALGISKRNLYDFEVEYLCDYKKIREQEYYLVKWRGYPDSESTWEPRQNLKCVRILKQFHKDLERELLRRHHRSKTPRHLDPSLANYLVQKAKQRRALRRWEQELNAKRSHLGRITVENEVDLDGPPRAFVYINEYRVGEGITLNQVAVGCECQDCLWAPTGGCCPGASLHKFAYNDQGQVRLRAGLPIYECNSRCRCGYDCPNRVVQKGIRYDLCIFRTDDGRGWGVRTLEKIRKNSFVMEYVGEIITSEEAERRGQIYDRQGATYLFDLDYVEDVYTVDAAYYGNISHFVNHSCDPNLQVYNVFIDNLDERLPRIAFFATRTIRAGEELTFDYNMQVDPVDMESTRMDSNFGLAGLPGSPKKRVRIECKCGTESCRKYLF
The settings on record: at 1 µM.

Test [3] has as its target T2, Mitogen-activated protein kinase kinase kinase 19 (Homo sapiens) (UniProt Q56UN5).
T2 sequence (whole entry): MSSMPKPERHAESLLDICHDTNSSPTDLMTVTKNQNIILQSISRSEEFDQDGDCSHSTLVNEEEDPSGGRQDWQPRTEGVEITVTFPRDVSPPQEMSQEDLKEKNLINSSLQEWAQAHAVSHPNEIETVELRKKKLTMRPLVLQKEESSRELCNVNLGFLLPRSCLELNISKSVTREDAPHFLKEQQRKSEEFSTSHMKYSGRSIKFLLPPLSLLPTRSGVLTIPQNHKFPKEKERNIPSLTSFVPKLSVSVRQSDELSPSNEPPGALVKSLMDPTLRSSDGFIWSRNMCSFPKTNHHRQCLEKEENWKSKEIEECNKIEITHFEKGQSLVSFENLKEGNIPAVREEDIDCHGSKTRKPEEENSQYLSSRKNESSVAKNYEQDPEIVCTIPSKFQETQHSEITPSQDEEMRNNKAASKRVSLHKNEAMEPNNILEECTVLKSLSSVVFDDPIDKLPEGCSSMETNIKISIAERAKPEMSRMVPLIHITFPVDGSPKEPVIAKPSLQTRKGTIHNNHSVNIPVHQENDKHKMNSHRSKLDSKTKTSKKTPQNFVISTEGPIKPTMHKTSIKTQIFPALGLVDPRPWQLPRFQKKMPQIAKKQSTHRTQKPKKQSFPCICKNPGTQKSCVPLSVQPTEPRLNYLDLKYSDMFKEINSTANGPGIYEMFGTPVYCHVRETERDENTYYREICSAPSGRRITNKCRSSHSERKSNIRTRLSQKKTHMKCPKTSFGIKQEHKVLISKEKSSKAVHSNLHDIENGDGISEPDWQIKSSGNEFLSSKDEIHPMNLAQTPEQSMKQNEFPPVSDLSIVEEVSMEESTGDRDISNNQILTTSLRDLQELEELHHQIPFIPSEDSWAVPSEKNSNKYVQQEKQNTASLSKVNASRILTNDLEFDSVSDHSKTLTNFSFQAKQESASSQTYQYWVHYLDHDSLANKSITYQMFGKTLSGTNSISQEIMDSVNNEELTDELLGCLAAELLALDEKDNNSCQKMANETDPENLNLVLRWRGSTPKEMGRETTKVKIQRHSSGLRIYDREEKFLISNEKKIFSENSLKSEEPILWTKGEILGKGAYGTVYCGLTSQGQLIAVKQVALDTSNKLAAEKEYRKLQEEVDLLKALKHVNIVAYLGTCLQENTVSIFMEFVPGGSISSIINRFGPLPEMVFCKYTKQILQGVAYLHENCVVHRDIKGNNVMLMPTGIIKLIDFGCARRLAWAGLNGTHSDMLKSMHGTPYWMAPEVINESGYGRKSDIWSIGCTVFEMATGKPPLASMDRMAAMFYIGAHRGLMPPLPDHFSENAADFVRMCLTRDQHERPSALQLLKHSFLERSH
Nature of the test: Selectivity interaction (KinomeScan (DiscoverX)) EUB0000655a MAP3K19. To be noted: at 10 µM.

The target of test [4] is T3, Serine/threonine-protein kinase PLK3 (Homo sapiens, UniProt Q9H4B4). Briefly: Selectivity interaction (KinomeScan (DiscoverX)) EUB0001079a PLK3. To be noted: at 1 µM.
Target sequence in this assay (Q9H4B4 whole entry, looked up): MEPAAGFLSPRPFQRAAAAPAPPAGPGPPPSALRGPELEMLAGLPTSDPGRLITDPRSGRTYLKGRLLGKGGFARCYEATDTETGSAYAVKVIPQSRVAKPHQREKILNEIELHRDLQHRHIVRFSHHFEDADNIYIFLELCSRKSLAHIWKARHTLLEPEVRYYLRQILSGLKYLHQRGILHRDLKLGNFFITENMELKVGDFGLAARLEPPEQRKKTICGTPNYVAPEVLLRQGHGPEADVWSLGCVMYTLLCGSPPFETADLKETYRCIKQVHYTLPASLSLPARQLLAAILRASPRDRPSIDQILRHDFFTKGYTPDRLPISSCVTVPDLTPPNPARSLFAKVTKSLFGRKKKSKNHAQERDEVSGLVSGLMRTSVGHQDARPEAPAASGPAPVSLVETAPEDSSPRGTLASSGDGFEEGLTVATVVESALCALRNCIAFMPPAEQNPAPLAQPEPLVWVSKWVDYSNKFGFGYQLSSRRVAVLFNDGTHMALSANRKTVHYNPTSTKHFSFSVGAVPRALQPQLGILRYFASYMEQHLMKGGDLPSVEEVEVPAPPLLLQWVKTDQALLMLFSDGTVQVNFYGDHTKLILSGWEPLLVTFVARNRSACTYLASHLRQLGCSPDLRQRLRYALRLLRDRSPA
The target in test [5] is Glycogen synthase kinase-3 alpha (Homo sapiens, UniProt P49840). Nature of the test: Selectivity interaction (Kinase panel (Invitrogen)) EUB0000639a GSK3A. To be noted: at 200 nM.
The target in test [6] is T3, Serine/threonine-protein kinase PLK3.
Target sequence in this assay (Q9H4B4 whole entry): as the sequence (Q9H4B4 whole entry, looked up) above
The target in test [7] is Mitogen-activated protein kinase 8 (Homo sapiens, UniProt P45983). Nature of the test: Selectivity interaction (KinomeScan (DiscoverX)) EUB0000618a MAPK8. The settings on record: at 10 µM.
The target in test [8] is Protein-tyrosine kinase 6 (Homo sapiens, UniProt Q13882). Briefly: Selectivity interaction (KinomeScan (DiscoverX)) EUB0000618a PTK6. To be noted: at 10 µM.

Molecules are shown by their SMILES.

Protein-tyrosine kinase 6, sequence (Q13882 whole entry, looked up): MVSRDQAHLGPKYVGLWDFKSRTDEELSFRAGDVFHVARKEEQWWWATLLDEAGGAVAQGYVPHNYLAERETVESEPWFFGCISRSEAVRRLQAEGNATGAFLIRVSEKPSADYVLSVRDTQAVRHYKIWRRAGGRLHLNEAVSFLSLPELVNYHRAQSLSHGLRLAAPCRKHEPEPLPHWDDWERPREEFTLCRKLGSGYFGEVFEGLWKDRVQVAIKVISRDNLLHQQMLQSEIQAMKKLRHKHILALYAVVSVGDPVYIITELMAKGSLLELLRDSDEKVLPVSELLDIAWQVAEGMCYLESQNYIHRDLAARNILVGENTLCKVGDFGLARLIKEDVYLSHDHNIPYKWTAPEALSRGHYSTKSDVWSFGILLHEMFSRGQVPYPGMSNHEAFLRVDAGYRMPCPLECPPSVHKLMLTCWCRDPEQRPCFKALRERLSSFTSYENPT
Serine/threonine-protein kinase PRP4 homolog (Homo sapiens), sequence (Q13523 whole entry): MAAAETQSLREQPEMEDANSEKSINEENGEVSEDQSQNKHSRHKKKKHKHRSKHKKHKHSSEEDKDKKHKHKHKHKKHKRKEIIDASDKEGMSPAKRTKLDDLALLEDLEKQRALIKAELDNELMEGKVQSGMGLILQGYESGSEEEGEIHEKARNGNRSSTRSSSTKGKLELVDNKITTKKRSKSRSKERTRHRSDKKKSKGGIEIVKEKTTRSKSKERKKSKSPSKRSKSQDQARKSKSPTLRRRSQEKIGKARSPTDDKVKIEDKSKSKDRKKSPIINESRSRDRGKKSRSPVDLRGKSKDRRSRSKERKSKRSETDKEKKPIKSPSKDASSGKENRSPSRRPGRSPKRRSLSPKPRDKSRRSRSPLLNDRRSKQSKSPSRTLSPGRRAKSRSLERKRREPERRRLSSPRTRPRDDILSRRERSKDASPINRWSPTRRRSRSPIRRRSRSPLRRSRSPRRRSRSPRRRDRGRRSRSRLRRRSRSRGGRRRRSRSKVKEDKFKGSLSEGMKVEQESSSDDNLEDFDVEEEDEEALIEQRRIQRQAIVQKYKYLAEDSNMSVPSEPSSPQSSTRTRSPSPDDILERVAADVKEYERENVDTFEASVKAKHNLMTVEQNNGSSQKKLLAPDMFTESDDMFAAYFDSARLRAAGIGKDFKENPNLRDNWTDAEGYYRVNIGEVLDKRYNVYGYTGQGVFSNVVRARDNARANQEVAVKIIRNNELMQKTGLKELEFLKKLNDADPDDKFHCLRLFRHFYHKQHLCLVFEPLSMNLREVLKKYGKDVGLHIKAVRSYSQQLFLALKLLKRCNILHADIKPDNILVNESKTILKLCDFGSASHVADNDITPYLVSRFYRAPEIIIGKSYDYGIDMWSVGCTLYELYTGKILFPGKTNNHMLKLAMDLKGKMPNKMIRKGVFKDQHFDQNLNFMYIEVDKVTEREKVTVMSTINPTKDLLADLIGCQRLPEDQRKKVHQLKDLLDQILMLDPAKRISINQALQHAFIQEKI
Glycogen synthase kinase-3 alpha, sequence (P49840 2-483 limits assumed): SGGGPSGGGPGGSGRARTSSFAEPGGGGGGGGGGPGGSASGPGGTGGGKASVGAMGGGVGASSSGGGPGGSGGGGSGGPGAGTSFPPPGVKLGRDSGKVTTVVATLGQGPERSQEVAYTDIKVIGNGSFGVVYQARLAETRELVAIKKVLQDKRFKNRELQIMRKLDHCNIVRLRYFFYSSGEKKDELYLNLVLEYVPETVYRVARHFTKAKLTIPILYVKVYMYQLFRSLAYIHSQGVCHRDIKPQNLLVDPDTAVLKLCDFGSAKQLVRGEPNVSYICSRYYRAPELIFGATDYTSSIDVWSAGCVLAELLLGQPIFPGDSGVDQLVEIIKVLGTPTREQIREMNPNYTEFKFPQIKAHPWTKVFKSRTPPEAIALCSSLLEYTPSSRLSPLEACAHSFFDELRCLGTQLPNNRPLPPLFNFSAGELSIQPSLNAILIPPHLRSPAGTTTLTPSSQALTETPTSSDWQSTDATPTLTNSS
Mitogen-activated protein kinase 8, sequence (P45983 whole entry): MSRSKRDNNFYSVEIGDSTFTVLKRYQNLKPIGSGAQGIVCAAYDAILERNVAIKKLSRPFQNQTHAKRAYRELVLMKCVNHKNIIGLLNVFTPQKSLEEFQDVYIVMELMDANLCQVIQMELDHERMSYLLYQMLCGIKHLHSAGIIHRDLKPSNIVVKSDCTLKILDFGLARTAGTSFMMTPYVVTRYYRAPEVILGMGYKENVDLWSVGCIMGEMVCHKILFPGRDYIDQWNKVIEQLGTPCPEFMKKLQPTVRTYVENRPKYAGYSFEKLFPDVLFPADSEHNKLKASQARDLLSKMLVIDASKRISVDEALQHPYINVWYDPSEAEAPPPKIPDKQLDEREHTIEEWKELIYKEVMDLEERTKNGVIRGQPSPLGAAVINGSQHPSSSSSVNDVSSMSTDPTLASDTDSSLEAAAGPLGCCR

As to `C=CC(=O)Nc1ccc(C(=O)Nc2[nH]nc3c2CN(C(=O)N[C@H](CN(C)C)c2ccccc2)C3(C)C)cc1`, the % of engagement in test [1] was -13.3%.

Molecule `CNCCN1CCC(c2cc(CN(C)C(=O)c3cccc(Oc4ccccc4)c3)ccn2)CC1` had a % activity in test [2] of over 90%.

The molecule `CN(C)CCOc1ccc(-c2nc(-c3ccncc3)c(-c3ccc4c(c3)CC/C4=N\O)[nH]2)cc1` displayed a % of control in test [3] of 30%.

`Nc1cnc(N2CCc3cc(S(=O)(=O)Nc4c(F)cc(Cl)cc4F)cc(N4CCCC4=O)c32)nc1` [TP-020n]: the % of control in test [4] was found to be 100%.

In test [5], `CC[C@@H]1[C@H](F)C(=O)N[C@@H]1COc1nccc2cc(C(N)=O)c(OC)cc12` [ZIMLOVISERTIB] registered a % of inhibition of 7.43%.

What is called IC50 is the point on the concentration scale where inhibition reaches its midpoint. In test [6], `CCc1cccc(CC)c1NC(=O)c1nn(C)c2c1CCc1cnc(Nc3ccc(C(=O)NC4CCN(C)CC4)cc3OC(F)(F)F)nc1-2` came in with an IC50 of over 10 µM.

With `O[C@H]1CC[C@H](Nc2ncc3nc(Nc4c(F)cc(F)cc4F)n([C@H]4CCOC4)c3n2)CC1`, the % of control in test [7] was 0%; in test [8], 100%.
